Data as given in patent publication US5175172A, “Method of alleviating AIDS symptoms and compositions therefor” (priority 1988, dated 1992).
Where “and” joins values, the source holds several entries; their conditions need not be identical. Equal entries are not always repeated. Where two headings read alike, the source gives them in different places.

Assays:
HIV [1] = details: for Antigenemia, evolution (%) in comparison with D0: D0 value 462 pg/ml
Description: (§1) Seven Month Follow-Up Study of Tacrine Administration to 26 HIV Infected Patients
(§2) Tacrine was supplied as capsules containing 63.5 mg. Tacrine hydrochloride,monohydrate corresponding to 50 mg. base. An inert excipient (lactose) was added to fill white hard size 3 gelatin capsules.
(§3) For the first 15 days, patients received 2 capsules a day (i.e., 1 capsule at 8 A.M. and 1 at 8 P.M.). After the first 15 days, if nausea had not occurred or had ceased, the dosage was augmented by 1 capsule (i.e., 1 capsule at 8 A.M., 1 at lunch time and 1 at 8 P.M.). After this second period of 15 days, if nausea had not occurred or had ceased, the dosage was augmented by a further 1 capsule, to reach 4 capsules a day (i.e., 1 capsule at 8 A.M., 1 at lunch time, 1 at 4 P.M. and 1 at 8 P.M.).
(§4) D0 --Inclusion Examination--Serological, hematological and clinical determinations. Patients are supplied with capsules of Tacrine for 15 days.
(§5) D15 --First Control after 15 Days Treatment--Serological, hematological and clinical determinations. Patients are supplied with capsules of Tacrine for 15 days.
(§6) D1mth --Second control after 1 month of Treatment--Serological, hematological and clinical determinations. Patients are supplied with capsules of Tacrine for 1 month.
(§7) D'n'mth --Same as D1mth. Following examinations of one month interval each.

T4 Lymphocytes = details: D0 value 203/mm^3
Description: as §1, §2, §3, §4, §5, §6, §7

[2] = Seven month follow-up of Tacrine in 26 HIV infected patients: tolerability, side effects and withdrawals; assay type: in vivo, human
Description: Tacrine was supplied as capsules containing 63.5 mg. Tacrine hydrochloride,monohydrate corresponding to 50 mg. base.
D0 --Inclusion Examination--Serological, hematological and clinical determinations.
as §7
Their mean age was 40.3 (range 27-65).
Mean duration of treatment was 6 months.

HIV [3] = assay: Seven month follow-up of THA vs AZT in HIV infected patients (open study): clinical results; assay type: in vivo, human
Description: (§8) Comparison of serological and clinical status of HIV infected patients after THA versus AZT treatment in an open study.
(§9) 70 patients (61 males, 11 females) with HIV infection (69 stage IV, 10 stages II and III), received either AZT (46 patients 600-1200 mg./day) or THA (26 patients 150-250 mg/day).
(§10) 13 patients were treated by THA alone, 20 by AZT alone, 26 by AZT then THA and 13 by THA then AZT. Mean duration of treatment was 5.8 months for 53 courses of AZT 5.4 months for 52 courses of THA.

[4] = Seven month follow-up of THA vs AZT in HIV infected patients (open study): withdrawals for toxicity; assay type: in vivo, human; details: AZT n = 52; THA n = 51
Description: as §8, §9, §10

[5] = molecular target: T1, reverse transcriptase of the HIV 1 virus (Human immunodeficiency virus type 1 group M subtype B, UniProt P04585); assay: Action on reverse transcriptase of the HIV 1 virus (3H thymidine triphosphate incorporation); assay type: biochemical
T1 construct: Action on Reverse Transcriptase of the HIV 1 Virus; made in house; host or cells: HIV 1 virus grown on CEM cells; virus pelleted from the culture medium and resuspended in Triton X 100 (viral lysate, not recombinant)
Description: For the direct study of the action of the product on the activity of the reverse transcriptase, the virus was concentrated by ultracentrifugation and the plugs of virus removed from the culture medium are resuspended in a solution containing 0.15% Triton X 100, 0.05M Tris at pH 7.8 and 20% glycerol.
These preparations, frozen at -20° C., are active for several months and served for the direct measurement of the products on enzymatic activity.
The THA is diluted as stated above and added to 40 μl of the incubation solution under a volume of 5.5 μl before the addition of 10 μl of the enzymatic preparation. Initial concentrations of the product are thus 10 times more concentrated than the final dilution in the presence of the enzyme. The controls received 5.5 μl of water.

[6] = molecular target: polymerase of Micrococcus Lysodecticus; details: read-out: Di50 for the inhibition of the DNA polymerase; specificity test, same concentrations as for reverse transcriptase
From the text: In order to evaluate the specificity of THA, the effects on the reverse transcriptase and on a non-viral DNA polymerase, namely the polymerase of Micrococcus Lysodecticus have been compared at the same concentrations.

CEM cells = system: CEM cells
Description: The CEM lines utilized for the multiplication of the virus, as well as for the inhibition studies, was provided by Service of Francoise Barre-Sinoussi, at the Institute Pasteur. The culture medium is RPMI 1640, supplemented with 10% fetal calf serum, 2% glutamine and 1% antibiotics. The cells are counted and subcultured in a culture flask every 3 or 4 days. In certain cases, the fungicide amphotericin B is added in dosages of 5 μg./ml.
The HIV 1 virus was provided from the same source and grown on CEM cells in the culture described above. The infection is created with a supernatant on the culture at a dose level of 50,000 cpm per 10^6 cells.
Healthy CEM cells were infected with HIV 1 virus at 40,000 cpm per 10^6 cells. After 7 days of infection at 37° C. an equal quantity of healthy cells are added, non-absorbed viruses removed and 5.10^5 cells/ml. and 5 ml. of medium are brought into the presence of THA.
During 5 or 6 days, the cells are counted and the supernatant of the culture is recovered for evaluation of the reverse transcriptase activity, that is to say, to determine the production of HIV 1 virus liberated by the cells. The cells are subculture into fresh medium containing the inhibitor at different concentrations.

HIV 1 virus = details: 5 μM and 10 μM THA
Description: The HIV 1 virus was provided from the same source and grown on CEM cells in the culture described above. The infection is created with a supernatant on the culture at a dose level of 50,000 cpm per 10^6 cells. The infection is followed by the evaluation of the activity of the reverse transcriptase which can reach a level of 10^6 cpm/ml. at the end of the culture. […]
35 μl of an incubation medium are made up of a solution of 0.07M magnesium chloride, 0.028M potassium chloride, 0.07M Tris at pH 7.8, 1.4 mM DTT and contain 5 μCi of ^3 H thymidine triphosphate, 2.5 μl of poly A are added to a unit of OD/ml. and 2.5 μl of oligo dT 12-18 to 1 unit of O.D/ml. and finally 10 μl of the plug resuspension from the ultracentrifugation or a control enzymatic preparation. […] The incorporated radioactivity which is as precipitated as an acid insoluble form was washed on Millipore HA 0.45 micron filters and counted by liquid scintillation counters. […]

[7] = reported by Byrne and Acie, British Med. J. 298 (1989) 845; cited from earlier work
[8] = during the first month of treatment
[9] = within the first month of treatment

Nc1c2c(nc3ccccc13)CCCC2 [Tacrine, 9-Amino-1,2,3,4-tetrahydroacridine]
Antigenemia, evolution (%) in comparison with D0 (HIV [1]; D1mth): -35.3% | Antigenemia, evolution (%) in comparison with D0 (HIV [1]; D2mth): -22.1% | Antigenemia, evolution (%) in comparison with D0 (HIV [1]; D3mth): -24% | Antigenemia, evolution (%) in comparison with D0 (HIV [1]; D4mth): -17% | Antigenemia, evolution (%) in comparison with D0 (HIV [1]; D5mth): -19.4% | Antigenemia, evolution (%) in comparison with D0 (HIV [1]; D6mth): -54% | Antigenemia, evolution (%) in comparison with D0 (HIV [1]; D7mth): -51.3% | Antigenemia, evolution (%) in comparison with D0 (HIV [1]; D15): -38.5% | Opportunistic infections, cases (HIV [1]; in 4 patients): 4 cases | Kaposi sarcoma emergence (HIV [1]; number of cases, 26 patients): 2 | Opportunistic infections: pneumocystosis (HIV [1]; number of cases, 26 patients): 1 | Opportunistic infections: toxoplasmosis (HIV [1]; number of cases, 26 patients): 1 | Opportunistic infections, patients (HIV [1]; seven month follow-up): 4/26 | Mortality (HIV [1]; seven month follow-up, 26 patients): none | T4 Lymphocytes counts, evolution (%) in comparison with D0 (T4 Lymphocytes; D1mth): +16.7% | T4 Lymphocytes counts, evolution (%) in comparison with D0 (T4 Lymphocytes; D2mth): +23.9% | T4 Lymphocytes counts, evolution (%) in comparison with D0 (T4 Lymphocytes; D3mth): +19.5% | T4 Lymphocytes counts, evolution (%) in comparison with D0 (T4 Lymphocytes; D4mth): +28% | T4 Lymphocytes counts, evolution (%) in comparison with D0 (T4 Lymphocytes; D5mth): +26.6% | T4 Lymphocytes counts, evolution (%) in comparison with D0 (T4 Lymphocytes; D6mth): +8.4% | T4 Lymphocytes counts, evolution (%) in comparison with D0 (T4 Lymphocytes; D7mth): +25.6% | T4 Lymphocytes counts, evolution (%) in comparison with D0 (T4 Lymphocytes; D15): +5% | Hematotoxicity: decrease of hematological counts ([2]; 26 patients): 0% | Hepatotoxicity: transaminase elevation ([2]; 26 patients): 0% | Nausea, cases ([2]; after the first month): 2 cases | Nausea, incidence ([2]; after the first month): 10% | Nausea, cases [2, 8]: 9 cases | Nausea, incidence [2, 8]: 35% | Withdrawals for side effects (severe nausea or neurologic), cases [2, 9]: 2 cases | Withdrawals for side effects (severe nausea or neurologic), incidence [2, 9]: 8% | Deaths, number (HIV [3]; AZT n = 52, THA n = 51): 0 | Kaposi Emergence, number (HIV [3]; AZT n = 52, THA n = 51): 2 | Kaposi Emergence, percent (HIV [3]; AZT n = 52, THA n = 51): 4% | Opportunistic Infections, number (HIV [3]; AZT n = 52, THA n = 51): 3 | Opportunistic Infections, percent (HIV [3]; AZT n = 52, THA n = 51): 6% | Deaths, significance p in comparison with AZT courses (HIV [3]; THA vs AZT courses): < 0.05 | THA versus AZT course of treatment, conclusion (HIV [3]; after 6 months of treatment): decrease in Agp24 levels, mortality and incidences of opportunistic infections | Withdrawals for toxicity, number [4]: 4 | Withdrawals for toxicity, percent [4]: 8% | IC50 ([5]; 37° C., 1 hour, read-out: 50% inhibition (Di50) of HIV 1 reverse transcriptase (converted)): 400 µM and 504 µM | Inhibition of HIV 1 reverse transcriptase in combination with HPA 23 ([5]; HPA 23 at 4 μg/ml): synergistic effect with HPA 23 | Inhibiting effect on reverse transcriptase ([5]; conclusions): low | IC50 ([5]; specificity test vs DNA polymerase, same concentrations, read-out: Di50 with respect to the reverse transcriptase): 450 µM | IC50 [6]: 1000 µM | Dose dependence of protective effect in CEM cultures (CEM cells): dose-dependent | Proliferation of HIV 1 infected CEM cultures (CEM cells; 1 μM THA): viral infection inhibits the proliferation | Proliferation of HIV 1 infected CEM cultures (CEM cells; 5 μM THA): the cells multiply up to the 16th. day and then decline to be destroyed like the previous cultures right up to the 28th day | Proliferation of HIV 1 infected CEM cultures (CEM cells; 10 μM THA): the cultures continue to proliferate right up to the 28th day | Protection of CEM cultures against lytic effect of HIV virus (CEM cells; at the 5 μM and more particularly at the 10 μM level): protects CEM cultures against the lytic effect of the HIV virus | Viral replication with respect to control cultures (HIV 1 virus): viral replication persists although significantly diminished | Hepatotoxicity on long term administration [7]: long term administration of Tacrine is not practical because of hepatotoxicity
